In BindingDB's records for doi:10.1021/acs.jmedchem.6b00965 (University of Iowa, 2017) one finds EC50 data, which are given here for five compounds.

A short description of test [1]: Activation of BTN3A1 in human Vgamma9Vdelta2 T cells assessed as induction of T effector cells mediated K562 cell lysis preincubated with K562 cells for 2 hrs followed by T effector cell addition measured after 4 hrs.
The nature of test [2]: Activation of BTN3A1 in human Vgamma9Vdelta2 T cells assessed as induction of interleukin 2 stimulated cell proliferation treated for 72 hrs measured on day 11 post last treatment by flow cytometry.
The target of test [3] is T1, Butyrophilin subfamily 3 member A1 (Homo sapiens, UniProt O00481). Briefly: Activation of BTN3A1 in human Vgamma9Vdelta2 T cells assessed as induction of T effector cells mediated K562 cell lysis preincubated with K562 cells for 2 hrs followed by T effector cell addition measured after 4 hrs.
T1 sequence (O00481 whole entry): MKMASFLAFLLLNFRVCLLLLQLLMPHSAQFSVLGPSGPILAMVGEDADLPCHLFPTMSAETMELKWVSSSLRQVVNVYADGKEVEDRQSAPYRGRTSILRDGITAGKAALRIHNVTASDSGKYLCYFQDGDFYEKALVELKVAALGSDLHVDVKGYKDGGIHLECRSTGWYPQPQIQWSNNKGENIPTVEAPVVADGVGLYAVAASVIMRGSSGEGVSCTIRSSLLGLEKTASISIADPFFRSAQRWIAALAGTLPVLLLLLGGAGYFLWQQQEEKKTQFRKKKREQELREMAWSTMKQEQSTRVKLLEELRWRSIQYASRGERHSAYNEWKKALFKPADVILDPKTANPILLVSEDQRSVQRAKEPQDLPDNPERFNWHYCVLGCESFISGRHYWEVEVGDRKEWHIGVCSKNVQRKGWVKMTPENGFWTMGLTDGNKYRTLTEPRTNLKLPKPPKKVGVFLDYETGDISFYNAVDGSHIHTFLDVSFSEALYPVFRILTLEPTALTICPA
The target in test [4] is T1, Butyrophilin subfamily 3 member A1. The test is described as follows: Activation of BTN3A1 in human Vgamma9Vdelta2 T cells assessed as induction of interleukin 2 stimulated cell proliferation treated for 72 hrs measured on day 11 post last treatment by flow cytometry. In general terms: A flow cytometer gives signals particle by particle.

Usually EC50 stands for the concentration needed to bring the measured effect to its halfway point.

Turning to `COP(=O)(CC/C=C(\C)CO)CP(=O)(OC)OC` (stereo not drawn), the EC50 in test [1] and in test [2] was more than 100 µM throughout. In the case of `C/C(=C\CCP(=O)(CP(=O)(OCOC(=O)C(C)(C)C)OCOC(=O)C(C)(C)C)OCOC(=O)C(C)(C)C)CO` (stereo not drawn), the EC50 in test [1] worked out at 0.28 µM. On the same count and under the same terms, the same measure for `CC(=CCCP(=O)(O)CP(=O)(O)O)CO`: 41 µM. For the compound `CC(C)=CCCP(=O)(CP(=O)(OCOC(=O)C(C)(C)C)OCOC(=O)C(C)(C)C)OCOC(=O)C(C)(C)C` (stereo not drawn), the EC50 was 7.3 µM in test [1] and more than 100 µM in test [2]. For `[C]C([C])=[C][C][C]P(=O)(O)[C]P(=O)(O)O`, the EC50 in test [3] and in test [4] was more than 100 µM in each case.
